Assay results: patent US5856503A, “Aminoalkyl-substituted benzo-heterocyclic compounds” (Hoffmann-La Roche Inc., priority 1995, dated 1999)

Biological target: T1, human liver microsomal 2,3-oxidosqualene-lanosterol cyclase (OSC) (Homo sapiens, UniProt P48449)
T1 construct: Liver microsomes from a healthy volunteer were prepared in sodium phosphate buffer (pH 7.4); from tissue; host or cells: liver microsomes from a healthy human volunteer
T1 sequence (P48449 1-732): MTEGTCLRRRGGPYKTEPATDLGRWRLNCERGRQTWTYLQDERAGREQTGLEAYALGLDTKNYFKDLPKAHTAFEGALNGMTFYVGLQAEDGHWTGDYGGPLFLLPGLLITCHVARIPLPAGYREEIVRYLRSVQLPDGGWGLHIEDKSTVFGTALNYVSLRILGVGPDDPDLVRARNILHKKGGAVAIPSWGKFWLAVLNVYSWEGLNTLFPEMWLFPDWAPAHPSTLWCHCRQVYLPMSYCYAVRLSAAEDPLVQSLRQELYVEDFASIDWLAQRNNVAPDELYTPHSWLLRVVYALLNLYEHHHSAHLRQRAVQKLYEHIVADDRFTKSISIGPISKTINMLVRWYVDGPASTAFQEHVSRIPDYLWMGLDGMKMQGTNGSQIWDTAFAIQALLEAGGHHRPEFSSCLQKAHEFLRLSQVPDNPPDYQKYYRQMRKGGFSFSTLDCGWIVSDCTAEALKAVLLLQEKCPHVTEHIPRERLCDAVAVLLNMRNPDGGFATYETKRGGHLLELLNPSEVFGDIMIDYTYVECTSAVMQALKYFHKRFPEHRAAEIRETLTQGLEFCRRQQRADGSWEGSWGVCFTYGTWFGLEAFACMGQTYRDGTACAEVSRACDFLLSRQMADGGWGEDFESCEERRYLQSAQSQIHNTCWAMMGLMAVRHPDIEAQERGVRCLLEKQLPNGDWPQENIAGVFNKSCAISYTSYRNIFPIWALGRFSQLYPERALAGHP
Experiment: Inhibition of human liver microsomal 2,3-oxidosqualene-lanosterol cyclase (OSC)
Type: biochemical
Details: for inhibition at 0.1 µM: 100 nM test substance, 1 hour at 37° C., against controls; for IC50: pH 7.4, 1 hour at 37° C., read-out: IC50 (OSC, conversion of MOS into lanosterol)
Protocol: Inhibition of human liver microsomal 2,3-oxidosqualene-lanosterol cyclase (OSC)
Liver microsomes from a healthy volunteer were prepared in sodium phosphate buffer (pH 7.4). The OSC activity was measured in the same buffer which also contained 1 mM EDTA and 1 mM dithiothreitol. The microsomes were diluted to 0.8 mg/ml protein in cold phosphate buffer. Dry [^14 C]R,S-monooxidosqualene (MOS; 12.8 μCi/mmol) was diluted to 20 nCi/μl with ethanol and mixed with phosphate buffer-1% BSA (Bovine Serum Albumin). A stock solution of 1 mM test substance in DMSO was diluted to the desired concentration with phosphate buffer-1% BSA. 40 μl of microsomes were mixed with 20 μl of the solution of the test substance and the reaction was subsequently started with 20 μl of the [^14 C]R,S-MOS solution. The final conditions were: 0.4 mg/ml of microsomal proteins and […] of [^14 C]R,S-MOS in phosphate buffer, pH 7.4, containing 0.5% albumin, DMSO <0.1% and ethanol <2%, in a total volume of 80 μl.
After 1 hour at 37° C. the reaction was stopped by the addition of 0.6 ml of 10% KOH-methanol, 0.7 ml of water and 0.1 ml of hexane:ether (1:1, v/v) which contained 25 μg of non-radioactive MOS and 25 μg of lanosterol as the carrier. After shaking 1 ml of hexane:ether (1:1, v/v) was added to each test tube, these were again shaken and then centrifuged. The upper phase was transferred into a glass test tube, the lower phase was again extracted with hexane:ether and combined with the first extract. The entire extract was evaporated to dryness with nitrogen, the residue was suspended in 50 μl of hexane:ether and applied to a silica gel plate. Chromatographic separation was effected in hexane:ether (1:1, v/v) as the eluent. […] After drying radioactive MOS and lanosterol were observed on the silica gel plate. The ratio of MOS to lanosterol was determined from the radioactive bands in order to determine the OSC inhibition.
The test was carried out on the one hand with a constant test substance concentration of 100 nM and the percentage OSC inhibition against controls was calculated. In addition, the test was carried out with different test substance concentrations and subsequently the IC50 value was calculated, i.e. the concentration required to reduce the conversion of MOS into lanosterol to 50% of the control value.

Row | SMILES | inhibition at 0.1 µM [%] | IC50 [nM]
1 | CN(C[C@@H]1C[C@H]1COc1ccc2c(-c3ccc(Br)cc3)nccc2c1)C1CC1 (racemic) [Example 39, (1RS,2RS)-[2-[1-(4-Bromo-phenyl)-isoquinolin-6-yloxymethyl]-cyclopropylmethyl]-cyclopropyl-methyl-amine] | 83 | 3.6
2 | C=CCN(C)C/C=C/COc1ccc2c(-c3ccc(Br)cc3)nsc2c1 [Example 2a, (E)-allyl-[4-[3-(4-bromo-phenyl)-benzo[d]isothiazol-6-yloxy]-but-2-enyl]-methyl-amine] | 92 | 1.65
3 | CSCCN(C)CCCCCCOc1ccc2c(-c3ccc(Br)cc3)nsc2c1 [Example 2b] | 32 | 
4 | C=CCN(C)CCCCCCOc1ccc2c(-c3ccc(Br)cc3)csc2c1 [Example 3, allyl-[6-[3-(4-bromo-phenyl)-benzo[b]thiophen-6-yloxy]-hexyl]methyl-amine] | 99 | 4
5 | C=CCN(C)C/C=C/COc1ccc2c(CCC=C(C)C)nsc2c1 [Example 6, (E)-allyl-methyl-[4-[3-(4-methyl-pent-3-enyl)-benzo[d]isothiazol-6-yloxy]-but-2-enyl]-amine] | 62 | 
6 | C=CCN(C)C/C=C/COc1ccc2c(-c3ccc(Br)cc3)noc2c1 [Example 12] | 61 | 
7 | C=CCN(C)CCCCCCOc1ccc(-c2noc3cc(Br)ccc23)cc1 [Example 14] | 30 | 
8 | C=CCN(C)C/C=C/COc1ccc2c(c1)CCN=C2c1ccc(Br)cc1 [Example 26, (E)-allyl-[4-[1-(4-bromo-phenyl)-3,4-dihydro-isoquinolin-6-yloxy]-but-2-enyl]-methyl-amine] | 95 | 2.1
9 | C=CCN(C)C/C=C/COc1ccc2c(c1)CON=C2c1ccc(Br)cc1 [Example 27, (E)-allyl-[4-[4-(4-bromo-phenyl)-1H-benzo[d][1,2]oxazin-7-yloxy]-but-2-enyl]-methyl-amine] | 96 | 3.7
10 | C=CCN(C)CCCCCCOc1ccc2c(-c3ccc(Br)cc3)nncc2c1 [Example 29, allyl-[6-[1-(4-bromo-phenyl)-phthalazin-6-yloxy]-hexyl]-methyl-amine] | 85 | 
11 | C=CCN(C)C/C=C/COc1cc2c(cc1F)c(-c1ccc(Br)cc1)nn2C [Example 31, (E)-allyl-[4-[3-(4-bromo-phenyl)-5-fluoro-1-methyl-1H-indazol-6-yloxy]-but-2-enyl]-methyl-amine] | 79 | 29
12 | C=CCN(C)CCCCCCOc1ccc2c(CCC=C(C)C)nn(C)c2c1 [Example 32e, allyl-methyl-[6-[1-methyl-3-(4-methyl-pent-3-enyl)-1H-indazol-6-yloxy]-hexyl]amine] | 75 | 
13 | C=CCN(C)C/C=C/COc1ccc2c(CCC=C(C)C)nn(C)c2c1 [Example 32h, (E)-allyl-methyl-[4-[1-methyl-3-(4-methyl-pent-3-enyl)-1H-indazol-6-yloxy]-but-2-enyl]-amine] | 54 | 
14 | CN(CCCCCCOc1ccc2c(-c3ccc(Br)cc3)nn(C)c2c1)C1CC1 [Example 32i, [6-[3-(4-bromo-phenyl)-1-methyl-1H-indazol-6-yloxy]-hexyl]-cyclopropyl-methyl-amine] | 55 | 
15 | C=CCN(C)CCCCCCOc1ccc2c(-c3ccc(Br)cc3)n[nH]c2c1 [Example 32k, allyl-[6-[3-(4-bromo-phenyl)-1H-indazol-6-yloxy]-hexyl]-methyl-amine] | 62 | 
16 | C=CCN(C)CCCCCCOc1ccc2c(-c3ccc(Br)cc3)ncnc2c1 [Example 33, Allyl-[6-[4-(4-bromo-phenyl)-quinazolin-7-yloxy]-hexyl]-methyl-amine] | 94 | 12.3
17 | C=CCN(C)CCCCCCOc1ccc2c(c1)OCC=C2c1ccc(Br)cc1 [Example 37, Allyl-[6-[4-(4-bromo-phenyl)-2H-chromen-7-yloxy]-hexyl]-methyl-amine] | 77 | 24
